The values below come from ChEMBL document CHEMBL1221262, “Synthesis and antituberculosis activity of new fatty acid amides” (2010).

The test system of this test is Mycobacterium tuberculosis. Kind of test: Antitubercular activity against Mycobacterium tuberculosis H37Rv after 7 days by resazurin microtiter assay. The test is classed as functional. The note with it: 168 h. For orientation: Alamar Blue is a resazurin reagent that responds to reducing activity.

Converted amounts (≈) assume the structure as drawn.

In general, MIC refers to the smallest concentration in the dilution series that meets the test's criterion for growth inhibition.

Molecule `CCCCCC[C@@H](O)C/C=C\CCCCCCCC(=O)NCc1ccccc1` gave a minimal inhibitory concentration (MIC) of 25 µg/mL (≈ 64.5 µM).
As for `CCCCC/C=C\C/C=C\CCCCCCCC(=O)N[C@H](C)c1ccccc1`, the figure is 100 µg/mL (≈ 261 µM); as for `CCCCCC[C@@H](O)C/C=C\CCCCCCCC(=O)N1CCOCC1`, 50 µg/mL (≈ 136 µM); as for `CCCCCCCCCCCCCCCC(=O)N1CCCCC1`, 25 µg/mL (≈ 77.3 µM).
As for `CCCCCCCCCCCCCCCC(=O)NCCO` [PALMIDROL], the figure is over 100 µg/mL; as for `CCCCCCCCCCCCCCCCCC(=O)N[C@@H](C)c1ccccc1`, over 100 µg/mL.
Turning to `CCCCCCCC/C=C\CCCCCCCC(=O)NCCO` [OLEOYLETHANOLAMIDE], the MIC was 25 µg/mL (≈ 76.8 µM).
`CCCCCC[C@@H](O)C/C=C\CCCCCCCC(=O)N[C@@H](C)c1ccccc1`: the lowest concentration to inhibit growth (MIC) was 100 µg/mL (≈ 249 µM).
The result for `CCCCCCCC/C=C\CCCCCCCC(=O)N1CCOCC1` reads 25 µg/mL (≈ 71.1 µM); that for `CCCCCCCCCCCCCCCCCC(=O)N[C@H](C)c1ccccc1`, over 100 µg/mL.
The result for `CCCCCCCCCCCCCCCC(=O)N[C@@H](C)c1ccccc1` reads over 100 µg/mL; that for `CCCCCCCC/C=C\CCCCCCCC(=O)N1CCCC1`, 25 µg/mL (≈ 74.5 µM).
As for `CCCCCCCCCCCCCCCC(=O)N[C@H](C)c1ccccc1`, the figure is over 100 µg/mL.
In turn, `CCCCCC[C@@H](O)C/C=C\CCCCCCCC(=O)N1CCCC1` came in with an MIC of 12.5 µg/mL (≈ 35.6 µM).
As to `CCCCC/C=C\C/C=C\CCCCCCCC(=O)N1CCCC1`, the MIC worked out at 12.5 µg/mL (≈ 37.5 µM).
Molecule `CCCCCCCCCCCCCCCC(=O)N1CCCC1` registered an MIC of 25 µg/mL (≈ 80.8 µM).
As for `CCCCCCCC/C=C\CCCCCCCC(=O)N1CCCCC1`, the figure is 50 µg/mL (≈ 143 µM); as for `CCCCCC[C@@H](O)C/C=C\CCCCCCCC(=O)N[C@H](C)c1ccccc1`, 100 µg/mL (≈ 249 µM); as for `CCCCC/C=C\C/C=C\CCCCCCCC(=O)N[C@@H](C)c1ccccc1`, 50 µg/mL (≈ 130 µM).
